For one assay, the target named is T1, IDO1 (Homo sapiens, UniProt P14902).
T1 construct: host or cells: HeLa cells, IDO1 induced with 100 ng/ml human IFN-γ
The experiment in a line: Hela cell-based IDO1 functional assay (kynurenine readout, IFN-γ induced). The conditions noted are these: Hela cells, 100 ng/ml human IFN-γ, 18 h; Table 1 and text. As to the method: To perform the Hela cell based IDO1 assay, Hela cells were seeded at 50,000 cells per well into 96-well microplate in 100 μl of DMEM 10% fetal bovine serum 1% Penicillin-Streptomycin. Cells were incubated at 37°C and 5% CO2 overnight.
The next day 100 μl per well of diluted inhibitor in growth medium was added at a final concentration of 100 ng/ml human IFN-γ. Cells were incubated at 37°C in a CO2 incubator for 18 h. The next day 140 μl of medium was moved into a new 96-well plate and 20 μl of 3.05 N trichloroacetic acid (TCA) was added. The plate was incubated at 50°C for 30 min to hydrolyze N-formylkynurenine. The plate was then centrifuged at 2,500 rpm for 10 min to remove sediments. 100 μl of supernatant per well was transferred to another 96-well plate and mixed with 100 μl of 2% (w/v) 4-(Dimethylamino)benzaldehyde in acetic acid. The plate was incubated at room temperature for 10 min, the yellow color derived from kynurenine was recorded by measuring absorbance at 480 nm using a microplate reader (PerkinElmer, USA).
To investigate the IDO1 inhibition activities of the synthesized derivatives, all the new compounds and icotinib were screened via Hela cell-based functional assay using methods described in the literature ([Yue et al., 2009]; [Malachowski et al., 2016]; [Qian et al., 2016]).

Assay [1] has as its system Human renal epithelial cell (293T). The assay is described as follows: Cytotoxicity assay, Cell Counting Kit-8 (CCK8), 72 h. The conditions noted are these: HEK-293T, 293T cells, CCK-8, 72 h. The format is cell-based. As to the method: Cytotoxity of the chosen compounds was evaluated by the Cell Counting Kit-8 (CCK8, DOJINDO, Japan) assay. The cells were seeded at a density of 2,000 cells per well into 96-well microplate in 100 μl of growth medium. Cells were incubated at 37°C and 5% CO2 overnight. The next day, 100 μl per well of diluted inhibitor in growth medium was added with the final concentration from 0.1nM to 100 μM. The cells were treated with DMSO as control. A series of dilutions were made in 0.1% DMSO in assay medium so that the final concentration of DMSO was 0.1% in all the treatments. Cells were incubated at 37°C and 5% CO2 for 72 h. Then, 10 μl of CCK8 was added to each well. The plates were incubated at 37°C for 2 h, and the plates were recorded by measuring the absorbance at 450 nm with the reference wavelength of 630 nm using an EnVisionMultilabel Reader (PerkinElmer). The IC50 values were calculated and determined by the concentration causing a half-maximal percent activity. All assays were conducted with three parallel samples and three repetitions.
Next, several compounds with submicromolar level of IDO1 inhibitory activities were chosen for further study. Human renal epithelial cell (293T) was chosen for CCK-8 assay to evaluation the bioactivity of these compounds.

Where only a bound is given, the exact number is not on record here.

We go through 22 compounds from PMC7555427, “Discovery of Icotinib-1,2,3-Triazole Derivatives as IDO1 Inhibitors” (Frontiers in Pharmacology, 2020).

T1 sequence (P14902 whole entry): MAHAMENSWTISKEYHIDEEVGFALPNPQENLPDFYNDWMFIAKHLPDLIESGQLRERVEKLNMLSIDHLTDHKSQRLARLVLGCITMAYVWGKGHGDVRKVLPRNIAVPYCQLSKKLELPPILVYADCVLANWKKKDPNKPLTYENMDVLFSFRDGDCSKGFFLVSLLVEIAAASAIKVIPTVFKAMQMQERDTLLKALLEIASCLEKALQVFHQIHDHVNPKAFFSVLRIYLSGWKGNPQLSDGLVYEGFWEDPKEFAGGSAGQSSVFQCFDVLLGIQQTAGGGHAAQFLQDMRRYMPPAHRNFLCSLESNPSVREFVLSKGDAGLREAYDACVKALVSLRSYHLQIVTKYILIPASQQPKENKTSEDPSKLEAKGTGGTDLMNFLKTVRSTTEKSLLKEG

`Fc1ccccc1Cn1cc(-c2cccc(Nc3ncnc4cc5c(cc34)OCCOCCOCCO5)c2)nn1` [a13, {3-[1-(2-Fluoro-benzyl)-1H-[1,2,3]triazol-4-yl]-phenyl}-(7,8,10,11,13,14-hexahydro-6,9,12,15-tetraoxa-1,3-diaza-cyclododeca[b]naphthalen-4-yl)-amine]: at IDO1, the IC50 came out at 4.62 ± 0.19 µM.

`Fc1cccc(-n2cc(-c3cccc(Nc4ncnc5cc6c(cc45)OCCOCCOCCO6)c3)nn2)c1` [a1, {3-[1-(3-Fluoro-phenyl)-1H-[1,2,3]triazol-4-yl]-phenyl}-(7,8,10,11,13,14-hexahydro-6,9,12,15-tetraoxa-1,3-diaza-cyclododeca[b]naphthalen-4-yl)-amine]: it took 4.25 ± 0.08 µM to reach half-maximal inhibition at IDO1 (IC50).

Compound `C#Cc1cccc(Nc2ncnc3cc4c(cc23)OCCOCCOCCO4)c1` [icotinib] gave a half-inhibitory concentration (IC50) against IDO1 of 2.57 ± 0.44 µM.

`COc1ccccc1-n1cc(-c2cccc(Nc3ncnc4cc5c(cc34)OCCOCCOCCO5)c2)nn1` [a4, (7,8,10,11,13,14-Hexahydro-6,9,12,15-tetraoxa-1,3-diaza-cyclododeca[b]naphthalen-4-yl)-{3-[1-(2-methoxy-phenyl)-1H-[1,2,3]triazol-4-yl]-phenyl}-amine]: the IC50 on IDO1 is 1.32 ± 0.17 µM.

Consider `c1ccc(-n2cc(-c3cccc(Nc4ncnc5cc6c(cc45)OCCOCCOCCO6)c3)nn2)cc1` [a6, (7,8,10,11,13,14-Hexahydro-6,9,12,15-tetraoxa-1,3-diaza-cyclododeca[b]naphthalen-4-yl)-[3-(1-phenyl-1H-[1,2,3]triazol-4-yl)-phenyl]-amine], for which the IC50 was determined as 0.77 ± 0.13 µM against IDO1 and 42.8 ± 11.8 µM in assay [1].

At IDO1, `Clc1ccc(-n2cc(-c3cccc(Nc4ncnc5cc6c(cc45)OCCOCCOCCO6)c3)nn2)cc1` [a2, {3-[1-(4-Chloro-phenyl)-1H-[1,2,3]triazol-4-yl]-phenyl}-(7,8,10,11,13,14-hexahydro-6,9,12,15-tetraoxa-1,3-diaza-cyclododeca[b]naphthalen-4-yl)-amine] displayed a half-maximal inhibitory concentration (IC50) of 2.9 ± 0.37 µM.

Take `Brc1ccccc1-n1cc(-c2cccc(Nc3ncnc4cc5c(cc34)OCCOCCOCCO5)c2)nn1` [a11, {3-[1-(2-Bromo-phenyl)-1H-[1,2,3]triazol-4-yl]-phenyl}-(7,8,10,11,13,14-hexahydro-6,9,12,15-tetraoxa-1,3-diaza-cyclododeca[b]naphthalen-4-yl)-amine]: inhibition on IDO1 was half-maximal at 1 ± 0.49 µM (IC50).

`COc1cccc(Cn2cc(-c3cccc(Nc4ncnc5cc6c(cc45)OCCOCCOCCO6)c3)nn2)c1` [a20, (7,8,10,11,13,14-Hexahydro-6,9,12,15-tetraoxa-1,3-diaza-cyclododeca[b]naphthalen-4-yl)-{3-[1-(3-methoxy-benzyl)-1H-[1,2,3]triazol-4-yl]-phenyl}-amine]: the 50% inhibitory concentration (IC50) on IDO1 was found to be 0.76 ± 0.07 µM; in assay [1], 3.3 ± 1.3 µM.

Regarding `Fc1ccc(-n2cc(-c3cccc(Nc4ncnc5cc6c(cc45)OCCOCCOCCO6)c3)nn2)cc1` [a3, {3-[1-(4-Fluoro-phenyl)-1H-[1,2,3]triazol-4-yl]-phenyl}-(7,8,10,11,13,14-hexahydro-6,9,12,15-tetraoxa-1,3-diaza-cyclododeca[b]naphthalen-4-yl)-amine], half-maximal inhibition at IDO1 (IC50) required 18.2 ± 1.47 µM.

In the case of `Cc1ccc(Cn2cc(-c3cccc(Nc4ncnc5cc6c(cc45)OCCOCCOCCO6)c3)nn2)cc1` [a15, (7,8,10,11,13,14-Hexahydro-6,9,12,15-tetraoxa-1,3-diaza-cyclododeca[b]naphthalen-4-yl)-{3-[1-(4-methyl-benzyl)-1H-[1,2,3]triazol-4-yl]-phenyl}-amine], the results for the half-inhibitory concentration (IC50) (against IDO1; in assay [1]) were 0.59 ± 0.05 µM and 0.16 ± 0.05 µM, respectively.

In the case of `Ic1ccccc1-n1cc(-c2cccc(Nc3ncnc4cc5c(cc34)OCCOCCOCCO5)c2)nn1` [a8, (7,8,10,11,13,14-Hexahydro-6,9,12,15-tetraoxa-1,3-diaza-cyclododeca[b]naphthalen-4-yl)-{3-[1-(2-iodo-phenyl)-1H-[1,2,3]triazol-4-yl]-phenyl}-amine], the IC50 on IDO1 stood at 2.5 ± 0.43 µM.

On to `c1ccc(Cn2cc(-c3cccc(Nc4ncnc5cc6c(cc45)OCCOCCOCCO6)c3)nn2)cc1` [a18, [3-(1-Benzyl-1H-[1,2,3]triazol-4-yl)-phenyl]-(7,8,10,11,13,14-hexahydro-6,9,12,15-tetraoxa-1,3-diaza-cyclododeca[b]naphthalen-4-yl)-amine], for which the IC50 on IDO1 amounted to 0.56 ± 0.16 µM; in assay [1] it was 3.08 ± 0.59 µM.

Take `Fc1ccc(CCn2cc(-c3cccc(Nc4ncnc5cc6c(cc45)OCCOCCOCCO6)c3)nn2)cc1` [a22, (3-{1-[2-(4-Fluoro-phenyl)-ethyl]-1H-[1,2,3]triazol-4-yl}-phenyl)-(7,8,10,11,13,14-hexahydro-6,9,12,15-tetraoxa-1,3-diaza-cyclododeca[b]naphthalen-4-yl)-amine]: the figures for the IC50 (against IDO1; in assay [1]) were 0.81 ± 0.35 µM and 2.6 ± 0.17 µM, respectively.

Compound `Brc1ccc(-n2cc(-c3cccc(Nc4ncnc5cc6c(cc45)OCCOCCOCCO6)c3)nn2)cc1` [a10, {3-[1-(4-Bromo-phenyl)-1H-[1,2,3]triazol-4-yl]-phenyl}-(7,8,10,11,13,14-hexahydro-6,9,12,15-tetraoxa-1,3-diaza-cyclododeca[b]naphthalen-4-yl)-amine] had an IC50 on IDO1 of 2.79 ± 0.46 µM.

With `Brc1cc(Br)cc(Cn2cc(-c3cccc(Nc4ncnc5cc6c(cc45)OCCOCCOCCO6)c3)nn2)c1` [a21, {3-[1-(3,5-Dibromo-benzyl)-1H-[1,2,3]triazol-4-yl]-phenyl}-(7,8,10,11,13,14-hexahydro-6,9,12,15-tetraoxa-1,3-diaza-cyclododeca[b]naphthalen-4-yl)-amine], the IC50 stood at 0.68 ± 0.44 µM against IDO1 and 0.74 ± 0.15 µM in assay [1].

`Cc1ccccc1Cn1cc(-c2cccc(Nc3ncnc4cc5c(cc34)OCCOCCOCCO5)c2)nn1` [a14, (7,8,10,11,13,14-Hexahydro-6,9,12,15-tetraoxa-1,3-diaza-cyclododeca[b]naphthalen-4-yl)-{3-[1-(2-methyl-benzyl)-1H-[1,2,3]triazol-4-yl]-phenyl}-amine]: the concentration for half-maximal inhibition (IC50) on IDO1 was 0.79 ± 0.21 µM; in assay [1] it was 3.35 ± 0.89 µM.

Regarding `Brc1cccc(Cn2cc(-c3cccc(Nc4ncnc5cc6c(cc45)OCCOCCOCCO6)c3)nn2)c1` [a17, {3-[1-(3-Bromo-benzyl)-1H-[1,2,3]triazol-4-yl]-phenyl}-(7,8,10,11,13,14-hexahydro-6,9,12,15-tetraoxa-1,3-diaza-cyclododeca[b]naphthalen-4-yl)-amine], the IC50 was determined as 0.37 ± 0.02 µM against IDO1 and 3.1 ± 0.2 µM in assay [1].

At IDO1, `Brc1ccccc1Cn1cc(-c2cccc(Nc3ncnc4cc5c(cc34)OCCOCCOCCO5)c2)nn1` [a19, {3-[1-(2-Bromo-benzyl)-1H-[1,2,3]triazol-4-yl]-phenyl}-(7,8,10,11,13,14-hexahydro-6,9,12,15-tetraoxa-1,3-diaza-cyclododeca[b]naphthalen-4-yl)-amine] displayed a half-inhibitory concentration (IC50) of 1.5 ± 0.45 µM.

The compound `Clc1ccccc1-n1cc(-c2cccc(Nc3ncnc4cc5c(cc34)OCCOCCOCCO5)c2)nn1` [a5, {3-[1-(2-Chloro-phenyl)-1H-[1,2,3]triazol-4-yl]-phenyl}-(7,8,10,11,13,14-hexahydro-6,9,12,15-tetraoxa-1,3-diaza-cyclododeca[b]naphthalen-4-yl)-amine] yielded a concentration for half-maximal inhibition (IC50) against IDO1 of 4.88 ± 0.42 µM.

Turning to `COc1cccc(-n2cc(-c3cccc(Nc4ncnc5cc6c(cc45)OCCOCCOCCO6)c3)nn2)c1` [a9, (7,8,10,11,13,14-Hexahydro-6,9,12,15-tetraoxa-1,3-diaza-cyclododeca[b]naphthalen-4-yl)-{3-[1-(3-methoxy-phenyl)-1H-[1,2,3]triazol-4-yl]-phenyl}-amine], it took 1.41 ± 0.08 µM to reach half-maximal inhibition against IDO1 (IC50).

The compound `Ic1ccccc1Cn1cc(-c2cccc(Nc3ncnc4cc5c(cc34)OCCOCCOCCO5)c2)nn1` [a16, (7,8,10,11,13,14-Hexahydro-6,9,12,15-tetraoxa-1,3-diaza-cyclododeca[b]naphthalen-4-yl)-{3-[1-(2-iodo-benzyl)-1H-[1,2,3]triazol-4-yl]-phenyl}-amine] came in with an IC50 on IDO1 of 1.51 ± 0.11 µM.

For `FC(F)(F)c1ccc(-n2cc(-c3cccc(Nc4ncnc5cc6c(cc45)OCCOCCOCCO6)c3)nn2)cc1` [a12, (7,8,10,11,13,14-Hexahydro-6,9,12,15-tetraoxa-1,3-diaza-cyclododeca[b]naphthalen-4-yl)-{3-[1-(4-trifluoromethyl-phenyl)-1H-[1,2,3]triazol-4-yl]-phenyl}-amine], at IDO1, the IC50 was over 100 µM.
